Data from PubChem BioAssay (NCI).
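Cells were grown in 96-well plates and exposed to each compound for 48 hours at five concentrations; endpoints were interpolated linearly between bracketing concentrations, or set to the highest concentration if not reached. Definition used: TGI = concentration required for complete inhibition of growth.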

Experiments:
Assay in all cases: DTP human tumour cell line panel, 48 h
[1] = tested on: MDA-N
[2] = tested on: SN12C renal
[3] = tested on: SNB-75 CNS
[4] = tested on: SF-268 CNS
[5] = tested on: NCI/ADR-RES ovarian
[6] = tested on: NCI-H460 lung
[7] = tested on: HCT-116 colon
[8] = tested on: SW-620 colon
[9] = tested on: BT-549 breast
[10] = tested on: SK-MEL-2 melanoma
[11] = tested on: MALME-3M melanoma

Structure (SMILES)	TGI [1] [µM]	TGI [2] [µM]	TGI [3] [µM]	TGI [4] [µM]	TGI [5] [µM]	TGI [6] [µM]	TGI [7] [µM]	TGI [8] [µM]	TGI [9] [µM]	TGI [10] [µM]	TGI [11] [µM]
CCOC(=O)N1N=C(/C(C)=N/OC)C(C)S1=O (stereo not given)	> 100	> 100	> 100	> 100	> 100	> 100	> 100	> 100	> 100	> 100	> 100
COc1ccc2c(c1)c1c(n2CCN(C)C)-c2ccccc2CC1	30.5	28.1	26.6	32.7	31.5	30.8	28.7	34.2	30.7	30.3	35.5
Clc1cc(Cl)cc(N=C/C=C/Nc2cc(Cl)cc(Cl)c2)c1	38.6	38.8	39.3	47.6	34.6	43.5	30.1	37.6	> 100	40.7	> 100
Cc1ccc(-c2nc(N/N=C/C=C/c3ccccc3)c3ccccc3n2)cc1	> 100	99	> 100	> 100	> 100	> 100	> 100	> 100	52.2	99.2	> 100
O=C(c1ccccc1)N(C(=O)c1ccccc1)c1nc(SCc2ccccc2)ns1	90.5	64.7	58.1	> 100	78.7	56.2	57.3	> 100	70.5	49.5	74.8
COc1ccc(/C=N/n2c(C)n[nH]c2=O)c(OC)c1	> 100	> 100	> 100	> 100	> 100	> 100	> 100	> 100	> 100	> 100	> 100
COC(=O)[C@]1(NC(=O)c2ccccc2)C[C@H]1C=O	> 100	> 100	> 100	> 100	> 100	77	> 100	> 100	> 100	> 100	> 100
N[C@H](C(=O)O)[C@@H]1CC(Br)=NO1	> 100	> 100	> 100	> 100	> 100	> 100	> 100	> 100	> 100	> 100	> 100
Nc1ccc2c(c1)nc1n2C(c2c(F)cccc2F)SC1 (stereo not given)	> 100	> 100	> 100	> 100	> 100	> 100	> 100	> 100	> 100	> 100	> 100
N#Cc1c2c(c(N)oc1=O)C(c1ccccc1)CC(=O)N2 (stereo not given)	> 100	> 100	> 100	> 100	> 100	> 100	> 100	> 100	> 100	> 100	> 100
COc1ccc(OC)c(CNc2ccc(C(=O)O)cc2)c1	> 100		> 100	> 100	> 100		> 100	> 100	> 100	> 100	> 100
CCCCCCCC1(N=[N+]=[N-])C(=O)Nc2ccccc2C1=O (stereo not given)	37.8	34.4	27.1	33.3	48.5	53.6	32.6	26.4	30.4	32.7	33.4
O=[N+]([O-])c1ccc(C(=S)Nc2ccccc2)o1	9.53	6.82	30.4	13	9.4	12.1	4.67	3.82	14.1	7.95	9.3
CC(=O)C1=CN=C2C(=O)N(c3ccccc3)N(C)C12C (stereo not given)	> 100	> 100	> 100		> 100		> 100	> 100	> 100	> 100	> 100
CCCCc1ccc(-n2sc3ncc(C)cc3c2=O)cc1	> 100	47.2	> 100		72	> 100	> 100	78	40.7	> 100	90.1
